Measurements reported in paper PMC5818615, “Use of HuH6 and other human-derived hepatoma lines for the detection of genotoxins: a new hope for laboratory animals?” (Archives of Toxicology, 2017).
Read-outs that look alike come from different tables or passages of the source. Marks after values point to notes of the source that are not given here.

Columns and labels:
[1] = system: PLC/PRF cells
Method: (§1) The SCGE experiments were conducted as described in an international guideline (Tice et al. [2000]). Reagents for the assays (lysis solution and alkaline electrophoresis buffer) and agarose-coated slides were prepared according to Collins and Dusinska ([2009]).
(§2) Briefly, cells were sub-cultured in 1.0 ml medium in 24–well tissue-culture plates (Sarstedt Inc., Newton, NC, USA). After 24 h, the media were changed and the cells exposed to different concentrations of the test compounds or to the solvent controls (PBS or DMSO). […] To terminate the treatment, the cells were washed twice with PBS (1.0 ml), trypsinized (100 µl T/E per well, 4 min) and then resuspended in 400 µl culture medium containing FBS. Subsequently, the suspensions were transferred to Eppendorf tubes and centrifuged (200g, 5 min). Cell pellets were resuspended in cold PBS.
(§3) In all experiments, acute toxic effects were determined with a CASY® Cell Counter and Analyzer System (Schärfe-System GmbH, Reutlingen, Germany) (Lindl et al. [2005]). SCGE assays were only performed when the viability of the cultures was ≥ 70% (Koppen et al. [2017]). Per experimental point, two cultures were set up in parallel and from each one slide with two separate gels (30,000 cells/gel) was prepared. After unwinding (40 min, pH > 13) and electrophoresis (30 min, 0.75 V/cm, ~ 300 mA, 4 °C, pH > 13), 50 cells were evaluated per gel (200 cells per experimental point). As an endpoint, we determined the tail intensities (“% DNA in tail”) with a computer-aided system Comet Assay IV (Perceptive Instruments, Bury St Edmunds, UK), which is at present the most widely used parameter (Collins et al. [2008]; Moller [2006]). For each gel, the median of the tail intensity was calculated.

[2] = system: WRL68 cells
Method: as §1, §2, §3

[3] = system: HuH6 cells
Method: as §1, §2, §3

[4] = system: human derived liver cell lines
Method: as §1, §2, §3

[5] = system: HCC 1.2 cells
Method: as §1, §2, §3

[6] = system: HuH7 cells
Method: as §1, §2, §3

[7] = system: JHH6 cells
Method: as §1, §2, §3

[8] = system: Hep3B cells
Method: as §1, §2, §3

[9] = system: HepG2 cells
Method: as §1, §2, §3

[10] = system: SNU-398 cells
Method: as §1, §2, §3

[11] = system: SNU-449 cells
Method: as §1, §2, §3

[12] = system: HepaRG cells
Method: as §1, §2, §3

[13] = system: SK-Hep1 cells
Method: as §1, §2, §3

[14] = system: primary human hepatocytes; conditions: cited from earlier work
[15] = system: HepaRG cells; conditions: ref Le Hegarat et al. [2014]; cited from earlier work
[16] = system: p53 gene; assay: Induction of p53 gene expression (RT-qPCR) in liver cell lines; format: cell-based, human; conditions: 30 µM B(a)P for 24 h
Method: (§4) The expression of the p53 gene in the different cell lines was analyzed using real-time quantitative PCR (RT-qPCR) according to the description of Straser et al. ([2013]). The protein was quantified by Western blotting as described by Pezdirc et al. ([2013]).

[17] = system: p53 protein; assay: Induction of p53 protein expression (Western Blot) in liver cell lines; format: cell-based, human; design: key to P53 protein expression (Western Blot) Induced: No expression is indicated with −; background expression with +; induced expression with ++; highly induced expression with +++; conditions: for P53 protein expression (Western Blot) Induced: 30 µM B(a)P for 24 h
Method: as §4

N-nitrosodimethylamine [NDMA]
% DNA in tail [1]: 1.15 ± 1.25 1.04 ± 0.33 1.65 ± 1.55 1.09 ± 0.33% | % DNA in tail [2]: 0.43 ± 0.22 1.03 ± 0.74 0.93 ± 0.05 0.12 ± 0.01% | % DNA in tail [3]: 1.73 ± 2.62 2.91 ± 1.45 6.86 ± 1.74* 13.1 ± 4.41 % | Doses required to cause significant effects in SCGE assays [4]: ≥ 100 mM | Number of the twelve lines sensitive towards the compound [4]: five | % DNA in tail [5]: 1.77 ± 1.64 16.3 ± 4.52* 17.1 ± 3.64* 8.87 ± 0.30 % | % DNA in tail [6]: 0.61 ± 0.35 0.69 ± 0.48 0.77 ± 0.60 3.01 ± 2.11 % | Result of SCGE experiments (in words) [6]: induction of DNA damage was found | % DNA in tail [7]: 1.17 ± 1.11 1.33 ± 0.66 1.69 ± 0.81 1.16 ± 0.53% | % DNA in tail [8]: 0.57 ± 0.21 0.62 ± 0.45 0.92 ± 0.45 0.61 ± 0.47% | % DNA in tail [9]: 0.35 ± 0.21 0.83 ± 0.26 1.12 ± 0.72 1.55 ± 0.49 % | % DNA in tail [10]: 0.40 ± 0.14 0.65 ± 0.50 0.83 ± 0.53 0.28 ± 0.11% | % DNA in tail [11]: 0.23 ± 0.16 0.52 ± 0.24 0.54 ± 0.11 0.15 ± 0.03% | % DNA in tail [12]: 0.96 ± 0.59 1.47 ± 0.10 1.41 ± 1.04 5.09 ± 0.52 % | Result of SCGE experiments (in words) [12]: detected | % DNA in tail [13]: 0.46 ± 0.16 0.70 ± 0.42 0.59 ± 0.24 0.37 ± 0.34% | Sensitivity of primary hepatocytes compared with HepG2 [14]: substantially stronger effects

OO [H2O2, hydrogen peroxide]
Sensitivity towards H2O2-induced DNA damage [12]: by far less sensitive

CC(=O)Nc1ccc2c(c1)Cc1ccccc1-2 [2-acetylaminofluorene]
Result of SCGE experiments (in words) [15]: negative results

aflatoxin B1 [AFB1]
% DNA in tail [1]: 1.84 ± 1.44 4.57 ± 1.83 4.77 ± 1.75 6.68 ± 2.94 % | % DNA in tail [2]: 3.14 ± 1.66 2.32 ± 0.89 1.98 ± 0.41 1.72 ± 0.78% | % DNA in tail [3]: 1.50 ± 1.09 3.35 ± 2.75 7.20 ± 3.1* 11.9 ± 4.30 % | Number of the twelve lines sensitive towards the compound [4]: Seven out of twelve lines | % DNA in tail [5]: 1.38 ± 0.48 3.74 ± 2.69 4.02 ± 1.22 8.75 ± 1.48 % | % DNA in tail [6]: 6.29 ± 1.57 2.76 ± 0.52 3.12 ± 0.70 5.81 ± 4.64% | % DNA in tail [8]: 0.93 ± 0.86 1.35 ± 0.81 4.03 ± 1.93* 4.31 ± 0.92 % | % DNA in tail [9]: 1.02 ± 0.28 0.85 ± 0.41 2.96 ± 0.66* 5.17 ± 1.57 % | % DNA in tail [10]: 2.50 ± 1.08 2.53 ± 1.68 3.06 ± 0.28 2.83 ± 0.61% | % DNA in tail [11]: 2.87 ± 2.05 2.04 ± 2.18 1.14 ± 1.95 3.37 ± 3.14% | % DNA in tail [12]: 4.16 ± 1.40 11.6 ± 1.50* 9.67 ± 2.17* 7.5 ± 1.76 % | Result of SCGE experiments (in words) [12]: detected | % DNA in tail [13]: 0.60 ± 0.41 1.30 ± 0.37 1.13 ± 0.72 1.24 ± 0.88%

c1ccc2c(c1)cc1ccc3cccc4ccc2c1c34 [B(a)P, benzo(a)pyrene]
P53 gene expression (RT-qPCR) Induced ([16]; HCC 1.2 cells, background 1): 1.50 ± 0.33 | P53 gene expression (RT-qPCR) Induced ([16]; Hep3B cells, background 0): 0 | P53 gene expression (RT-qPCR) Induced ([16]; HepG2 cells, background 1): 1.48 ± 0.18 | P53 gene expression (RT-qPCR) Induced ([16]; HepaRG cells, background 1): 0.87 ± 0.14 | P53 gene expression (RT-qPCR) Induced ([16]; HuH6 cells, background 1): 1.26 ± 0.01 | P53 gene expression (RT-qPCR) Induced ([16]; HuH7 cells, background 1): 1.13 ± 0.01 | P53 gene expression (RT-qPCR) Induced ([16]; JHH6 cells, background 1): 1.00 ± 0.03 | P53 gene expression (RT-qPCR) Induced ([16]; PLC/PRF cells, background 1): 0.89 ± 0.05 | P53 gene expression (RT-qPCR) Induced ([16]; SK-Hep1 cells, background 1): 1.04 ± 0.12 | P53 gene expression (RT-qPCR) Induced ([16]; SNU-398 cells, background 1): 1.03 ± 0.15 | P53 gene expression (RT-qPCR) Induced ([16]; SNU-449 cells, background 1): 0.95 ± 0.03 | P53 gene expression (RT-qPCR) Induced ([16]; WRL68 cells, background 1): 0.96 ± 0.03 | DNA migration in comet assay ([14]; primary liver cells, 50 µM, 3 h, statistically not analyzed, ref Monteith and Vanstone [1995]): increase of DNA migration | Sensitivity of primary hepatocytes compared with HepG2 ([14]; ref Wilkening et al. [2003]): no difference | P53 protein expression (Western Blot) Induced ([17]; HCC 1.2 cells, background +, mutated p53): + | P53 protein expression (Western Blot) Induced ([17]; Hep3B cells, background −): − | p53 protein induction (in words) ([17]; HepG2, B(a)P treatment for 24 h): induced | P53 protein expression (Western Blot) Induced ([17]; HepG2 cells, background +): +++ | P53 protein expression (Western Blot) Induced ([17]; HepaRG cells, background +): + | p53 protein induction (in words) ([17]; HuH6, B(a)P treatment for 24 h): induced | P53 protein expression (Western Blot) Induced ([17]; HuH6 cells, background +): ++ | P53 protein expression (Western Blot) Induced ([17]; HuH7 cells, background +): + | P53 protein expression (Western Blot) Induced ([17]; JHH6 cells, background +): + | P53 protein expression (Western Blot) Induced ([17]; PLC/PRF cells, background +): + | P53 protein expression (Western Blot) Induced ([17]; SK-Hep1 cells, background +): + | P53 protein expression (Western Blot) Induced ([17]; SNU-398 cells, background +, mutated p53): + | P53 protein expression (Western Blot) Induced ([17]; SNU-449 cells, background +): + | P53 protein expression (Western Blot) Induced ([17]; WRL68 cells, background +): +

Cc1ccc(N)cc1N [2,4-diaminotoluene]
Result of SCGE experiments (in words) [15]: negative results
